The experiment addresses T1, TopoI (TopoIWT) (Streptococcus pneumoniae, UniProt Q8DPI9).
T1 construct: gene topA
Description: biochemical.

T1 sequence (Q8DPI9 1-701): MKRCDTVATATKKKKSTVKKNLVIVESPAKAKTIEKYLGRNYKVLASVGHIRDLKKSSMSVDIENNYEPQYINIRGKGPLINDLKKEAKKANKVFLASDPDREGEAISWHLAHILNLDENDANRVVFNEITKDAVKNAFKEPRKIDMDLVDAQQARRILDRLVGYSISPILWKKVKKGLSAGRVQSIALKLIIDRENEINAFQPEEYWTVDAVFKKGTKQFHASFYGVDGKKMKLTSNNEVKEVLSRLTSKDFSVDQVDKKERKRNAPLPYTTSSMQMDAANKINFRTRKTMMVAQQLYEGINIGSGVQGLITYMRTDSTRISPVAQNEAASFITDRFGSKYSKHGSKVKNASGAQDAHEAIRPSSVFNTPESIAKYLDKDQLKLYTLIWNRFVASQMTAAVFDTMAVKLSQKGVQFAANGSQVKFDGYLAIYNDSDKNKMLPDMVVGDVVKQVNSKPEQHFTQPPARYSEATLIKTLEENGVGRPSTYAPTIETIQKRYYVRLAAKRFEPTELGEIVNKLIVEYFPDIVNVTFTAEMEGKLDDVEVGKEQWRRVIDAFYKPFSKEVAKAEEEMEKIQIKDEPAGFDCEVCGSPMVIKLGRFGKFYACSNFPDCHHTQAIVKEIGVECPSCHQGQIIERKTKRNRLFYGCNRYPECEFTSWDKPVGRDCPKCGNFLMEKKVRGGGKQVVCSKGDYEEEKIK

`CNCCc1cc2c(c3c1ccc1cc4c(cc13)OCO4)OCO2` [SCN, Seconeolitsine] showed an IC50 of 6.8 ± 2 µM.

For the origin of these results see article PMC10648598, “Physiologic and Transcriptomic Effects Triggered by Overexpression of Wild Type and Mutant DNA Topoisomerase I in Streptococcus pneumoniae” (International Journal of Molecular Sciences, 2023).
